Results: patent publication US20050064412A1, “Method of evaluating degree of canceration of mammal-origin specimen” (priority 2001, published 2005)

Columns and labels:
Assay type in all cases: cell-based, human
3OST2 gene [1] = assay: Methylation-specific PCR of 3OST2 gene after culture with methylation inhibitor (MDA-MB-468); conditions: breast cancer cell line MDA-MB-468 cultured in the presence of 0.5 μM 5Aza-dC, FIG. 2
Protocol: (§1) Two kinds of human-derived breast cancer cell lines (MCF-7, MDA-MB-468) and human-derived normal mammary gland epithelial cell (HMEC) were seeded at a density of 3 to 6×10^5 cells/10 cm plate, and cultured using RPMI or DMEM or an exclusively used medium. On the first day after seeding, 5-aza-2′-deoxytidine (manufactured by sigma) (hereinafter, referred to as 5Aza-dC) which is a methylation inhibitor was added to a medium to give the concentration of 0.5 to 6 μM. Twenty four hours after addition of 5Aza-Dc, the medium was exchanged with the aforementioned medium to which no 5Aza-dC was added, and culturing was continued. Then, on the third day after seeding, 5Aza-dC was added to the medium similarly. On the fourth day after seeding, cells were recovered, and a genomic DNA was extracted and recovered from the recovered cells according to the same manner as that of Example 1. Further, according to the same manner as that of Example 2, a RNA was extracted and recovered.
(§2) The extracted and recovered genomic DNA was treated with sodium bisulfite according to the same manner as that of Example 1. The resulting DNA was used as a template and PCR was performed using unmethylation-specific primers U2 and U3, or methylation-specific primers M3 and M4 shown below. […]

3OST2 gene [2] = assay: Methylation-specific PCR of 3OST2 gene after culture with methylation inhibitor (MCF-7); conditions: breast cancer cell line MCF-7 cultured in the presence of 6 μM 5Aza-dC, FIG. 2
Protocol: as §1, §2

3OST2 gene [3] = assay: RT-PCR of 3OST2 gene mRNA after culture with methylation inhibitor (MDA-MB-468); conditions: FIG. 3
Protocol: The thus obtained RNA was treated with DNaseI (Life Technologies), and this was used as a template and Superscript II (Life Technologies) was used to synthesize a cDNA according to a protocol attached to the enzyme. By performing PCR using the synthesized cDNA as a template and using 3OST2 S and 3OST2 A shown below as a primer pair, a DNA derived from a mRNA of 3OST2 gene was amplified. Thereupon, as a control by performing PCR using the aforementioned cDNA as a template and using GAPDH S and GAPDH A solution below as a primer pair, a DNA derived from a mRNA of a GAPDH gene was amplified.
A reaction solution PCR was used which was obtained by mixing 20 ng of a cDNA as a template, each 0.25 μl of two kinds of 25 pmol/μl aforementioned primer solution, 0.5 μl of 10 mM dNTP, 2.5 μl of 10× buffer (100 mM Tris-HCl pH 8.3, 500 mM KCl, 20 mM MgCl2) and 0.15 μl of a 5 U/μl thermostable DNA polymerase, and adding sterilized ultrapure water thereto to an amount of solution of 25 μl. When a DNA derived from mRNA of 3OST2 gene was amplified, PCR was performed at the conditions under which the reaction solution was retained at 94° C. for 10 minutes, 28 cycles of temperature maintenance were performed, each cycle was 30 seconds at 94° C., 30 seconds at 45° C. and 60 seconds at 72° C., and a temperature was maintained at 72° C. for 10 minutes. […]

In the case of `Nc1ncn([C@H]2C[C@H](O)[C@@H](CO)O2)c(=O)n1` [5Aza-dC, 5-aza-2′-deoxytidine], the “methylation status of cytosines 1260, 1271, 1281, 1410, 1418, 1423 and 1425 of SEQ ID NO: 1 (3OST2 gene)” value (3OST2 gene [1]) is reported as “not methylated in almost genomic DNAs”, the “methylation status of cytosines 1260, 1271, 1281, 1410, 1418, 1423 and 1425 of SEQ ID NO: 1 (3OST2 gene)” value (3OST2 gene [2]) is reported as “not methylated in genomic DNAs of approximately half of cells” and the “DNA (161 bp) derived from a mRNA of 3OST2 gene (expression)” value (3OST2 gene [3]; MAD-MB-468 cultured in the presence of 0.5 μM 5Aza-dC) is reported as “detected”. For the same compound, the “DNA (161 bp) derived from a mRNA of 3OST2 gene (expression)” value (3OST2 gene [3]; MAD-MB-468 cultured in the presence of 1 μM 5Aza-dC) was “detected”.
